Results from US11786492B2, “Therapeutic agent for phosphodiesterase inhibition and its related disorders” (Novalead Pharma Inc, priority 2017, dated 2023).

Tests used:
[1] = system: HaCaT cells; experiment: Cell viability of HaCaT cells, Alamar blue; format: cell-based, human; details: for % Viability (±S.E.M.): 100 μM
Method: (§1) HaCaT cells were maintained in T-75 cm2 flask in Dulbecco's modified Eagle medium supplemented with FBS (10%), L-glutamine (2 mM), penicillin (100 ug/ml), streptomycin (100 ug/ml) at 37° C. in 5% CO2 incubator. Cell growth was maintained to 70-80% confluence for seeding and vehicle used was 1% DMSO. The cell viability was checked at various time points using Alamar blue and fluorescence readings were taken at excitation of 544 nm and emission of 590 nm.

[2] = system: Human IL-6; experiment: IL-6 release from stimulated PBMCs, ELISA; format: cell-based; details: LPS 100 ng/mL, 18 hrs
Method: (§2) Fresh human blood from healthy volunteer was collected in anticoagulant (5 mM) ethylene diamine tetra acetic acid (EDTA) containing tubes. The growth medium used was RPMI-1640 medium (with 3% FBS) and incubated at 37° C. for 60 mins in a 5% CO2 incubator with vehicle used as 1% DMSO. The cell viability was checked at various time points using Alamar blue and fluorescence readings were taken at excitation of 544 nm and emission of 590 nm.
(§3) PBMCs were stimulated with different stimulators as follows: • a. Cells were exposed to stimulator LPS at 100 ng/mL for 18 hrs to stimulate TNF-α, IL-6, IFN-γ, IL10, IL-1β • b. Cells were exposed to stimulator IFN-γ+LPS at 100 ng/mL+1 μg/mL for 18 hrs to stimulate IL-12 • c. Cells were exposed to stimulator PMA+Ionomycin at 50 ng/mL+1 μg/mL for 18 hrs to stimulate IL-23, IL-22, IL-17A, IL-17F
(§4) After 18 hrs supernatants were collected and centrifuged to remove any cell debris and aliquots were used for ELISA.

[3] = system: Human IL-12; experiment: IL-12 release from stimulated PBMCs, ELISA; format: cell-based; details: IFN-γ+LPS, 18 hrs
Method: as §2, §3, §4

[4] = molecular target: PDE2A (Homo sapiens, UniProt O00408); experiment: Fluorescence polarization assay PDE2A; format: biochemical; details: substrate cGMP
Method: An experiment to check inhibition of various subtypes of the target Phosphodiesterase (PDE) enzyme in in-vitro assay was performed. […] PDE1A, PDE2A, PDE4A, PDE4B, PDE4C, PDE4D, PDE5A, PDE7A, PDE9A, PDE10A.

[5] = system: Human IFN-γ; experiment: IFN-γ release from stimulated PBMCs, ELISA; format: cell-based; details: LPS 100 ng/mL, 18 hrs
Method: as §2, §3, §4

[6] = system: Human IL-22; experiment: IL-22 release from stimulated PBMCs, ELISA; format: cell-based; details: PMA+Ionomycin, 18 hrs
Method: as §2, §3, §4

[7] = system: human PBMCs; experiment: Cell viability of human PBMCs, Alamar blue; format: cell-based
Method: as §2

[8] = system: TNF-α; experiment: TNF-α release from stimulated HaCaT cells, ELISA; format: cell-based, human; details: IFN-γ 50 ng/mL, 48 hrs
Method: as §1
(§5) HaCaT cells were stimulated with different stimulators as follows: • a. Cells were exposed to stimulator LPS at 1 μg/mL for 48 hrs to stimulate IL-1β • b. Cells were exposed to stimulator IFN-γ at 50 ng/mL for 48 hrs to stimulate TNF-α, IL-6
(§6) After 48 hrs supernatants were collected and centrifuged to remove any cell debris and aliquots were used for ELISA.

[9] = system: Human IL-17A; experiment: IL-17A release from stimulated PBMCs, ELISA; format: cell-based; details: PMA+Ionomycin, 18 hrs
Method: as §2, §3, §4

[10] = system: IL-6; experiment: IL-6 release from stimulated HaCaT cells, ELISA; format: cell-based, human; details: IFN-γ 50 ng/mL, 48 hrs
Method: as §1, §5, §6

[11] = system: Human IL-1β; experiment: IL-1β release from stimulated PBMCs, ELISA; format: cell-based; details: LPS 100 ng/mL, 18 hrs
Method: as §2, §3, §4

PDE2A, sequence (O00408 whole entry, species assumed): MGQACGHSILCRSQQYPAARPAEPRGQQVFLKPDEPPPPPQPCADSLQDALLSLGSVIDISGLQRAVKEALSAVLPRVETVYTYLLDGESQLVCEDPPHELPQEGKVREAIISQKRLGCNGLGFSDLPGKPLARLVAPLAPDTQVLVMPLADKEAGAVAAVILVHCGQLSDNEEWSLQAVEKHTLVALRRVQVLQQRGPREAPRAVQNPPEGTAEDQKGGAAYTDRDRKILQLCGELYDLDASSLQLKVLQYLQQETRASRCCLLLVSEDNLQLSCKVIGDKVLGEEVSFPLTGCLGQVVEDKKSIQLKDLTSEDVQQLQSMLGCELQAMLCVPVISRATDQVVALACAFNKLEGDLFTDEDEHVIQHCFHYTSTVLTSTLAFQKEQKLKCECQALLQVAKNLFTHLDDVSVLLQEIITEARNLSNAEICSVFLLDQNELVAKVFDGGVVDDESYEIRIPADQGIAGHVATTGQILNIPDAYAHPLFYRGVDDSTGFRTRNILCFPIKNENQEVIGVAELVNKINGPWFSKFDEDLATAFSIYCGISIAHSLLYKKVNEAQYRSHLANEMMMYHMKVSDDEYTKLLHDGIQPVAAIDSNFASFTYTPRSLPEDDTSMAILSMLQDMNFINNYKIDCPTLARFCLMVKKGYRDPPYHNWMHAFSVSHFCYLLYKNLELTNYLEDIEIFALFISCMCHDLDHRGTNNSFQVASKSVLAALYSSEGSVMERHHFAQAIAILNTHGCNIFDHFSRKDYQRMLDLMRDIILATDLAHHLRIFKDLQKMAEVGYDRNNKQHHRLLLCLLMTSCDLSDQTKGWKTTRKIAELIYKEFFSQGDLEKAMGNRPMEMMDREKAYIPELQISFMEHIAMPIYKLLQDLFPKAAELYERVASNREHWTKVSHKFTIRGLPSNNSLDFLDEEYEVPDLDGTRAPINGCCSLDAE

IC50 [4]: 12 µM
Compound: O=C(Nc1ncc([N+](=O)[O-])s1)c1ccccc1O [Tizoxanide]
% Viability (±S.E.M.) ([1]; 48 hrs): 13 ± 0% | % Viability (±S.E.M.) ([1]; 72 hrs): 20 ± 0% | Concentration which exhibited cell viability of 70% ([1]; HaCaT cells, maximum concentration for stimulation study): 1 µM | Human IL-6 concentration ([2]; 1 μM): 6122 pg/mL | Human IL-6 concentration ([2]; 10 μM): 5225 pg/mL | Human IL-6 concentration ([2]; 25 μM): 3428 pg/mL | Human IL-6 concentration ([2]; 50 μM): 2086 pg/mL | Human IL-12 concentration ([3]; 1 μM): 4715 pg/mL | Human IL-12 concentration ([3]; 10 μM): 1401 pg/mL | Human IL-12 concentration ([3]; 25 μM): 381 pg/mL | Human IL-12 concentration ([3]; 50 μM): 101 pg/mL | Human IFN-γ concentration ([5]; 1 μM): 204 pg/mL | Human IFN-γ concentration ([5]; 10 μM): 111 pg/mL | Human IFN-γ concentration ([5]; 25 μM): 139 pg/mL | Human IFN-γ concentration ([5]; 50 μM): 191 pg/mL | Human IL-22 concentration ([6]; 1 μM): 7858 pg/mL | Human IL-22 concentration ([6]; 10 μM): 1189 pg/mL | Human IL-22 concentration ([6]; 25 μM): 280 pg/mL | Human IL-22 concentration ([6]; 50 μM): 0 pg/mL | % Viability (±S.E.M.) ([7]; 0.01 μM, 24 hrs): 91 ± 3% | % Viability (±S.E.M.) ([7]; 0.01 μM, 48 hrs): 96 ± 3% | % Viability (±S.E.M.) ([7]; 0.01 μM, 72 hrs): 115 ± 1% | % Viability (±S.E.M.) ([7]; 1 μM, 24 hrs): 84 ± 2% | % Viability (±S.E.M.) ([7]; 1 μM, 48 hrs): 101 ± 4% | % Viability (±S.E.M.) ([7]; 1 μM, 72 hrs): 102 ± 3% | % Viability (±S.E.M.) ([7]; 100 μM, 24 hrs): 91 ± 5% | % Viability (±S.E.M.) ([7]; 100 μM, 48 hrs): 64 ± 2% | % Viability (±S.E.M.) ([7]; 100 μM, 72 hrs): 25 ± 2% | Concentration which exhibited cell viability of 70% ([7]; PBMCs, maximum concentration for stimulation study): 50 µM | TNF-α Conc. ([8]; 0.1 μM): 2.9 ± 0.2 pg/mL | TNF-α Conc. ([8]; 0.5 μM): 3.2 ± 0.1 pg/mL | TNF-α Conc. ([8]; 1 μM): 2.3 ± 0.5 pg/mL | Human IL-17A concentration ([9]; 1 μM): 39 pg/mL | Human IL-17A concentration ([9]; 10 μM): 0 pg/mL | Human IL-17A concentration ([9]; 25 μM): 0 pg/mL | Human IL-17A concentration ([9]; 50 μM): 0 pg/mL | IL-6 Conc. ([10]; 0.1 μM): 87 ± 2 pg/mL | IL-6 Conc. ([10]; 0.5 μM): 80 ± 2 pg/mL | IL-6 Conc. ([10]; 1 μM): 78 ± 6 pg/mL | Human IL-1β concentration ([11]; 1 μM): 4577 pg/mL | Human IL-1β concentration ([11]; 10 μM): 4118 pg/mL | Human IL-1β concentration ([11]; 25 μM): 4168 pg/mL | Human IL-1β concentration ([11]; 50 μM): 2522 pg/mL
